Experimental findings from ChEMBL document CHEMBL1144945, “Development of progesterone receptor antagonists from 1,2-dihydrochromeno[3,4-f]quinoline agonist pharmacophore” (Bioorg Med Chem Lett, 2003) are described below.

Active and inactive are the calls of the source.

The target in assay [1] is Estrogen receptor (Homo sapiens) (UniProt Q92731+P03372). In words: Antagonist efficacy for Estrogen receptor; Not active. The format is functional.
In assay [2] the target is T1, Mineralocorticoid receptor (Homo sapiens, UniProt P08235).
T1 sequence (P08235 whole entry): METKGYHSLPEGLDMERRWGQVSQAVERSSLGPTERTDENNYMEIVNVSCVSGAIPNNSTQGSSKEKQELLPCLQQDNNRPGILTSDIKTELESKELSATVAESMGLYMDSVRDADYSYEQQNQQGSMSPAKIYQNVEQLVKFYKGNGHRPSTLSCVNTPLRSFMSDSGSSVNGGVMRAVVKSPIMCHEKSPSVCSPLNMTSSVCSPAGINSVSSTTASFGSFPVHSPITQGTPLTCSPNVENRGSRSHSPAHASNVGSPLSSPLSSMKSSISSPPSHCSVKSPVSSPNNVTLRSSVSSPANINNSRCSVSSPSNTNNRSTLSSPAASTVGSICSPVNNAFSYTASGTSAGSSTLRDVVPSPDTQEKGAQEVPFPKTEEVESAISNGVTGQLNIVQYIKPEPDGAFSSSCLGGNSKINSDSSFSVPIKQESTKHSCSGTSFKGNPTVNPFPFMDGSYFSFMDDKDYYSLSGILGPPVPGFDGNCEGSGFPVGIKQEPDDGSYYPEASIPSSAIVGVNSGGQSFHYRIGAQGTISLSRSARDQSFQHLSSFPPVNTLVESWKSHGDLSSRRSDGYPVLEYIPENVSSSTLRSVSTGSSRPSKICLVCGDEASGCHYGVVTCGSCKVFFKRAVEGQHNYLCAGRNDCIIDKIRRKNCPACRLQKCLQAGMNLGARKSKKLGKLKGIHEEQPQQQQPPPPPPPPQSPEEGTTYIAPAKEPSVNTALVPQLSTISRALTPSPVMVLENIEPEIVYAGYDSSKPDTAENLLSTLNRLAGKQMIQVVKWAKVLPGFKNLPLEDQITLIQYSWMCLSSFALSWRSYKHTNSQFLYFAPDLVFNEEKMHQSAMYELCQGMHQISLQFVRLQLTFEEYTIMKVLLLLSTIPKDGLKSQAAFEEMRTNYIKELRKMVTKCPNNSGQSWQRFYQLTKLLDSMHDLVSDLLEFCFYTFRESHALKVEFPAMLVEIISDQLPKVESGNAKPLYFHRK
The experiment in a line: Inhibition of antagonist activity towards mineralocorticoid receptor (hMR); Not active. In kind it is functional.

Assay [3] deals with T2, Mineralocorticoid receptor (Homo sapiens) (UniProt P08235).
T2 sequence (whole entry): T1 sequence (P08235 whole entry)
The experiment in a line: Antagonist efficacy for mineralocorticoid receptor (hMR); Not active. In kind it is functional.

Assay [4] deals with T3, Progesterone receptor (Homo sapiens) (UniProt P06401).
T3 sequence (whole entry): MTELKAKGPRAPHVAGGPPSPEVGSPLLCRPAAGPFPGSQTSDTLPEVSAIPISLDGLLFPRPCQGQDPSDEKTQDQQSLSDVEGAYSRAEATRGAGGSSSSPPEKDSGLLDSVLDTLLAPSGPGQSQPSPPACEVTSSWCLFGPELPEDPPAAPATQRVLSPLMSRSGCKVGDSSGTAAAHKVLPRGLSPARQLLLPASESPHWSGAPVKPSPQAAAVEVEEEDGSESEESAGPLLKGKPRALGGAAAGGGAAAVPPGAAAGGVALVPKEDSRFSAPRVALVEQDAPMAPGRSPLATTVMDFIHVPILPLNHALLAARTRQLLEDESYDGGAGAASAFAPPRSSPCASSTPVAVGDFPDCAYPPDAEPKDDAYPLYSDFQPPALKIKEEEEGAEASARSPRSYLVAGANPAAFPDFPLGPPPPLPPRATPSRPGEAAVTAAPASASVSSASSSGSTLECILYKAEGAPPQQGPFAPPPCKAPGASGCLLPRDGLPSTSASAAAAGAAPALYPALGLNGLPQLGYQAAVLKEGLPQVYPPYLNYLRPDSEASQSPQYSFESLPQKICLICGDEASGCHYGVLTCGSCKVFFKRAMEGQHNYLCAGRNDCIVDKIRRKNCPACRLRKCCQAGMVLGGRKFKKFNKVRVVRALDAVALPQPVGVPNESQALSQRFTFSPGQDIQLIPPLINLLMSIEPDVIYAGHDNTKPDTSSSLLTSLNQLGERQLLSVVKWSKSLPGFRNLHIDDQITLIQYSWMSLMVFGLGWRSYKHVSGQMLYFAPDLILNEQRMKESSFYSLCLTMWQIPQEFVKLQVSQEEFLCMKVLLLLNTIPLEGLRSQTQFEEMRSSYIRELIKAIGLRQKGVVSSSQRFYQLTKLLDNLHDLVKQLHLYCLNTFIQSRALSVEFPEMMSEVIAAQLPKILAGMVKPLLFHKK
The experiment in a line: Agonist efficacy for human progesterone receptor in T47D human breast cancer cell; not active (<20% efficacy and/or >10 mM potency). The format is functional, cell-based.

The target of assay [5] is T4, Progesterone receptor (Homo sapiens, UniProt P06401).
T4 sequence (P06401 whole entry): T3 sequence (whole entry)
In words: Effective concentration for human progesterone receptor in T47D human breast cancer cell; not active (<20% efficacy and/or >10 mM potency). The note with it: cancer cell lines.

The target of assay [6] is T4, Progesterone receptor.
Description: Antagonistic activity at human progesterone receptor in CV-1 cells.
The target of assay [7] is T4, Progesterone receptor. This is another data set of the same source.
Description: Binding affinity at human progesterone receptor.
Assay [8] concerns the target T4, Progesterone receptor. The source holds these as a separate data set.
Description: Inhibition of human progesterone receptor activation in T47D human breast cancer cell.

The IC50 is the point on the concentration scale where inhibition reaches its midpoint. In general, EC50 refers to the midpoint of the concentration-response curve. The Ki is a dissociation constant, usually derived from enzyme kinetics or from competition with a known ligand. On to `CC1=CC(C)(C)Nc2ccc3c(c21)COc1c(F)cc(Br)cc1-3`, for which the Efficacy result in assay [1], in assay [3] and in assay [4] was “inactive” throughout. The IC50 result was “Not Active” in assay [2] and 0.461 µM at Progesterone receptor [8]. Besides, the figures for the EC50 entry at Progesterone receptor [5] and on Progesterone receptor [6] were “Not Active” and 0.057 µM, respectively. This molecule yielded a Ki at Progesterone receptor [7] of 0.0124 µM.
For `CC1=CC(C)(C)Nc2ccc3c(c21)COc1c(F)cc(Cl)cc1-3`, the IC50 result in assay [2] is reported as “Not Active”. In assay [3], the Efficacy result is “inactive”.
Turning to `CC1CC(C)(C)Nc2ccc3c(c21)COc1ccc([N+](=O)[O-])cc1-3` (stereo not drawn), the Efficacy result in assay [1] and in assay [4] was “inactive” throughout. The IC50 in assay [2] (read-out: IC50) is 2.87 µM (not active); against Progesterone receptor [8], 0.104 µM. Also, the Efficacy in assay [3] was 58%. In addition, the EC50 result on Progesterone receptor [5] was “Not Active”; on Progesterone receptor [6], 0.052 µM. In addition, at Progesterone receptor [7], the affinity, expressed as Ki, was 0.144 µM.
For `CC1CC(C)(C)Nc2ccc3c(c21)COc1c(F)cc(F)cc1-3` (stereo not drawn), the Efficacy result in assay [1], in assay [3] and in assay [4] was “inactive” throughout. The IC50 result in assay [2] is “Not Active”; on Progesterone receptor [8] it was 0.217 µM. Further, the EC50 result at Progesterone receptor [5] is “Not Active”; at Progesterone receptor [6], 0.04 µM. The same molecule came in with a Ki on Progesterone receptor [7] of 0.045 µM.
For the molecule `CC1=CC(C)(C)Nc2ccc3c(c21)COc1c(F)cc(F)cc1-3`, in assay [2], the IC50 result was “Not Active”. Moreover, the Efficacy result in assay [3] was “inactive”.
